# Experimental data as given in article PMC8185074, “Anchor extension: a structure-guided approach to design cyclic peptides targeting enzyme active sites” (Nature Communications, 2021).
# Peptide text beside a SMILES is read from it.
# Key:
# Type in all cases: biochemical
# [1] = biological target: T1, HDAC2 (Homo sapiens, UniProt Q92769); experiment: HDAC2 inhibition, full IC50 measurement (Reaction Biology; fluorogenic p53 peptide RHKK(Ac)AMC)
# T1 construct: purchased Reaction Biology Corporation (assay run by the CRO)
# Method in brief: (§1)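 The reaction was a 1 h, 30 °C incubation of enzyme, acoustically added peptide and 50 μM p53-derived AMC substrate in pH 8.0 Tris buffer with NaCl, KCl, MgCl2, 1 mg/ml BSA and 1% DMSO. Duplicate values were averaged.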
# [2] = biological target: T2, HDAC8 (Homo sapiens, UniProt Q9BY41); experiment: HDAC8 inhibition, full IC50 measurement (Reaction Biology; fluorogenic p53 peptide RHKK(Ac)AMC); conditions: t1/t2 replicates
# T2 construct: purchased Reaction Biology Corporation (assay run by the CRO)
# T2 sequence (Q9BY41 1-377): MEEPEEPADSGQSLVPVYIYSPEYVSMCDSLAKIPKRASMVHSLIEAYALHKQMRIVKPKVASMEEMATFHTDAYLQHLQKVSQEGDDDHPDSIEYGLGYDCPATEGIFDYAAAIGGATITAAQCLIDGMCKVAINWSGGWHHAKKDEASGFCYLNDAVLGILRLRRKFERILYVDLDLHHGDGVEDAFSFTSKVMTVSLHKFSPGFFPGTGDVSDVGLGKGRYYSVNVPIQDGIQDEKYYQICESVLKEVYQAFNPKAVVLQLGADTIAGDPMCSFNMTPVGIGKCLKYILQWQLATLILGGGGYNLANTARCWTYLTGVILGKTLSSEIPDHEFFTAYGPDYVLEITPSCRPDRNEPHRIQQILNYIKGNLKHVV
# Method in brief: as §1
# [3] = biological target: T1, HDAC2; experiment: Initial HDAC2 IC50 estimate (BPS Biosciences HDAC fluorogenic assay kit); conditions: Supplementary Dataset 2; read-out: HDAC2 activity (initial activity)
# Method in brief: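 Inhibition measured by kit-based fluorogenic HDAC activity assays, with each point in duplicate or triplicate. Values come from a full 1 µM–100 pM series (1:10 steps) or are range estimates from just 20 nM and 200 nM.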
# T1 sequence (Q92769 whole entry): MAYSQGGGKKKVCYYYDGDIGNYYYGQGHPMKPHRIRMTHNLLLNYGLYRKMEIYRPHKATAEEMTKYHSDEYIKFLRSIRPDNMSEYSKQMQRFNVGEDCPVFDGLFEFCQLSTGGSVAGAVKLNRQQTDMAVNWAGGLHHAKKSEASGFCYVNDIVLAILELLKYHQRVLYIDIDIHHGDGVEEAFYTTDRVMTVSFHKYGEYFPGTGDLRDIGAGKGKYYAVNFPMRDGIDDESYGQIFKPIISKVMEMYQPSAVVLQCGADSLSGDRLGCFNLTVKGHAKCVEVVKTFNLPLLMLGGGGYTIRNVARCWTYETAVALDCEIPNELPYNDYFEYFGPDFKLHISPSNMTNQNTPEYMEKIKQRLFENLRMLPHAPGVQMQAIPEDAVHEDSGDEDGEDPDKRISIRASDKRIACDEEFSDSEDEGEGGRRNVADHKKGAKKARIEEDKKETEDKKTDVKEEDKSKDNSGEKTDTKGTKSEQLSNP
smiles,measurement,setting,value
"CCCC[C@H]1NC(=O)[C@H](Cc2ccccc2)NC(=O)[C@H](CCCCCS)NC(=O)[C@@H](CCCNC(=N)N)NC(=O)[C@H](CC(=O)O)NC(=O)[C@@H](CO)NC(=O)[C@@H](C)NC(=O)[C@H](CCCCN)NC1=O [des4.3.1, SHA-Phe-dNle-Lys-dAla-dSer-Asp-dArg] (HELM PEPTIDE1{D.[dR].[O=C([C@H](CCCCCS)N[*:1])[*:2]].F.[CCCC[C@@H](N[*:1])C(=O)[*:2]].K.[dA].[dS]}$PEPTIDE1,PEPTIDE1,1:R1-8:R2$$$V2.0)",HDAC2 activity raw data (signal),"[1]; Conc. 1.00E-05 M, t1",97979
same,HDAC2 activity raw data (signal),"[1]; Conc. 1.00E-05 M, t2",118920
same,HDAC2 activity raw data (signal),"[1]; Conc. 1.11E-06 M, t1",710265
same,HDAC2 activity raw data (signal),"[1]; Conc. 1.11E-06 M, t2",678505
same,HDAC2 activity raw data (signal),"[1]; Conc. 1.23E-07 M, t1",1050894
same,HDAC2 activity raw data (signal),"[1]; Conc. 1.23E-07 M, t2",1073616
same,HDAC2 activity raw data (signal),"[1]; Conc. 1.37E-08 M, t1",1089277
same,HDAC2 activity raw data (signal),"[1]; Conc. 1.37E-08 M, t2",1188700
same,HDAC2 activity raw data (signal),"[1]; Conc. 1.52E-09 M, t1",1283576
same,HDAC2 activity raw data (signal),"[1]; Conc. 1.52E-09 M, t2",1146756
same,HDAC2 activity raw data (signal),"[1]; Conc. 3.33E-06 M, t1",321418
same,HDAC2 activity raw data (signal),"[1]; Conc. 3.33E-06 M, t2",369190
same,HDAC2 activity raw data (signal),"[1]; Conc. 3.70E-07 M, t1",905304
same,HDAC2 activity raw data (signal),"[1]; Conc. 3.70E-07 M, t2",972905
same,HDAC2 activity raw data (signal),"[1]; Conc. 4.12E-08 M, t1",1002980
same,HDAC2 activity raw data (signal),"[1]; Conc. 4.12E-08 M, t2",1204296
same,HDAC2 activity raw data (signal),"[1]; Conc. 4.57E-09 M, t1",1158146
same,HDAC2 activity raw data (signal),"[1]; Conc. 4.57E-09 M, t2",1127910
same,HDAC2 activity raw data (signal),"[1]; Conc. 5.08E-10 M, t1",1185807
same,HDAC2 activity raw data (signal),"[1]; Conc. 5.08E-10 M, t2",1137899
same,IC50,"[1]; unit printed only in the axis title, read-out: HDAC2 IC50 (printed in dose-response picture)",1500 nM
same,HDAC8 activity raw data (signal),"[2]; peptide conc. 1.00E-05 M, listed as des4.3.1_t1",-1078311
same,HDAC8 activity raw data (signal),"[2]; peptide conc. 1.00E-05 M, listed as des4.3.1_t2",-204031
same,HDAC8 activity raw data (signal),"[2]; peptide conc. 1.11E-06 M, listed as des4.3.1_t1",952629
same,HDAC8 activity raw data (signal),"[2]; peptide conc. 1.11E-06 M, listed as des4.3.1_t2",3749954
same,HDAC8 activity raw data (signal),"[2]; peptide conc. 1.23E-07 M, listed as des4.3.1_t1",24845816
same,HDAC8 activity raw data (signal),"[2]; peptide conc. 1.23E-07 M, listed as des4.3.1_t2",32510062
same,HDAC8 activity raw data (signal),"[2]; peptide conc. 1.37E-08 M, listed as des4.3.1_t1",71732810
same,HDAC8 activity raw data (signal),"[2]; peptide conc. 1.37E-08 M, listed as des4.3.1_t2",73842492
same,HDAC8 activity raw data (signal),"[2]; peptide conc. 1.52E-09 M, listed as des4.3.1_t1",70954745
same,HDAC8 activity raw data (signal),"[2]; peptide conc. 1.52E-09 M, listed as des4.3.1_t2",80270259
same,HDAC8 activity raw data (signal),"[2]; peptide conc. 3.33E-06 M, listed as des4.3.1_t1",928811
same,HDAC8 activity raw data (signal),"[2]; peptide conc. 3.33E-06 M, listed as des4.3.1_t2",1732618
same,HDAC8 activity raw data (signal),"[2]; peptide conc. 3.70E-07 M, listed as des4.3.1_t1",8410528
same,HDAC8 activity raw data (signal),"[2]; peptide conc. 3.70E-07 M, listed as des4.3.1_t2",10886213
same,HDAC8 activity raw data (signal),"[2]; peptide conc. 4.12E-08 M, listed as des4.3.1_t1",59468141
same,HDAC8 activity raw data (signal),"[2]; peptide conc. 4.12E-08 M, listed as des4.3.1_t2",56999449
same,HDAC8 activity raw data (signal),"[2]; peptide conc. 4.57E-09 M, listed as des4.3.1_t1",79326596
same,HDAC8 activity raw data (signal),"[2]; peptide conc. 4.57E-09 M, listed as des4.3.1_t2",78170432
same,HDAC8 activity raw data (signal),"[2]; peptide conc. 5.08E-10 M, listed as des4.3.1_t1",81559751
same,HDAC8 activity raw data (signal),"[2]; peptide conc. 5.08E-10 M, listed as des4.3.1_t2",84202880
same,IC50,[3],350 nM
"C[C@H](O)[C@H]1NC(=O)[C@H](Cc2c[nH]c3ccccc23)NC(=O)[C@H](CCCCCS)NC(=O)[C@H](CCCCN)NC(=O)[C@@H](CC(=O)O)NC(=O)[C@@H](CCCCN)NC(=O)[C@@H](CO)NC(=O)[C@H](CC(N)=O)NC(=O)[C@H](CC(=O)O)NC1=O [des2.1.0, SHA-Trp-dThr-Asp-Asn-dSer-dLys-dAsp-Lys] (HELM PEPTIDE1{D.N.[dS].[dK].[dD].K.[O=C([C@H](CCCCCS)N[*:1])[*:2]].W.[dT]}$PEPTIDE1,PEPTIDE1,1:R1-9:R2$$$V2.0)",HDAC2 activity raw data (signal),"[1]; Conc. 1.00E-05 M, t1",8775
same,HDAC2 activity raw data (signal),"[1]; Conc. 1.00E-05 M, t2",5752
same,HDAC2 activity raw data (signal),"[1]; Conc. 1.11E-06 M, t1",59204
same,HDAC2 activity raw data (signal),"[1]; Conc. 1.11E-06 M, t2",55653
same,HDAC2 activity raw data (signal),"[1]; Conc. 1.23E-07 M, t1",287500
same,HDAC2 activity raw data (signal),"[1]; Conc. 1.23E-07 M, t2",296559
same,HDAC2 activity raw data (signal),"[1]; Conc. 1.37E-08 M, t1",771007
same,HDAC2 activity raw data (signal),"[1]; Conc. 1.37E-08 M, t2",731853
same,HDAC2 activity raw data (signal),"[1]; Conc. 1.52E-09 M, t1",900838
same,HDAC2 activity raw data (signal),"[1]; Conc. 1.52E-09 M, t2",951179
same,HDAC2 activity raw data (signal),"[1]; Conc. 3.33E-06 M, t1",26370
same,HDAC2 activity raw data (signal),"[1]; Conc. 3.33E-06 M, t2",19470
same,HDAC2 activity raw data (signal),"[1]; Conc. 3.70E-07 M, t1",153888
same,HDAC2 activity raw data (signal),"[1]; Conc. 3.70E-07 M, t2",158440
same,HDAC2 activity raw data (signal),"[1]; Conc. 4.12E-08 M, t1",557731
same,HDAC2 activity raw data (signal),"[1]; Conc. 4.12E-08 M, t2",531503
same,HDAC2 activity raw data (signal),"[1]; Conc. 4.57E-09 M, t1",870100
same,HDAC2 activity raw data (signal),"[1]; Conc. 4.57E-09 M, t2",861014
same,HDAC2 activity raw data (signal),"[1]; Conc. 5.08E-10 M, t1",1022928
same,HDAC2 activity raw data (signal),"[1]; Conc. 5.08E-10 M, t2",990162
same,IC50,"[1]; figure legends, Supp. Table 1, read-out: HDAC2 IC50",49.3 nM
same,HDAC8 activity raw data (signal),"[2]; peptide conc. 1.00E-05 M, listed as des2.1.0_t1",3317278
same,HDAC8 activity raw data (signal),"[2]; peptide conc. 1.00E-05 M, listed as des2.1.0_t2",3225773
same,HDAC8 activity raw data (signal),"[2]; peptide conc. 1.11E-06 M, listed as des2.1.0_t1",14350924
same,HDAC8 activity raw data (signal),"[2]; peptide conc. 1.11E-06 M, listed as des2.1.0_t2",13274280
same,HDAC8 activity raw data (signal),"[2]; peptide conc. 1.23E-07 M, listed as des2.1.0_t1",29733699
same,HDAC8 activity raw data (signal),"[2]; peptide conc. 1.23E-07 M, listed as des2.1.0_t2",29791882
same,HDAC8 activity raw data (signal),"[2]; peptide conc. 1.37E-08 M, listed as des2.1.0_t1",39649362
same,HDAC8 activity raw data (signal),"[2]; peptide conc. 1.37E-08 M, listed as des2.1.0_t2",39639123
same,HDAC8 activity raw data (signal),"[2]; peptide conc. 1.52E-09 M, listed as des2.1.0_t1",48372865
same,HDAC8 activity raw data (signal),"[2]; peptide conc. 1.52E-09 M, listed as des2.1.0_t2",43623554
same,HDAC8 activity raw data (signal),"[2]; peptide conc. 3.33E-06 M, listed as des2.1.0_t1",8085277
same,HDAC8 activity raw data (signal),"[2]; peptide conc. 3.33E-06 M, listed as des2.1.0_t2",7910023
same,HDAC8 activity raw data (signal),"[2]; peptide conc. 3.70E-07 M, listed as des2.1.0_t1",24973470
same,HDAC8 activity raw data (signal),"[2]; peptide conc. 3.70E-07 M, listed as des2.1.0_t2",23110500
same,HDAC8 activity raw data (signal),"[2]; peptide conc. 4.12E-08 M, listed as des2.1.0_t1",39179752
same,HDAC8 activity raw data (signal),"[2]; peptide conc. 4.12E-08 M, listed as des2.1.0_t2",38239026
same,HDAC8 activity raw data (signal),"[2]; peptide conc. 4.57E-09 M, listed as des2.1.0_t1",45086009
same,HDAC8 activity raw data (signal),"[2]; peptide conc. 4.57E-09 M, listed as des2.1.0_t2",40240975
same,HDAC8 activity raw data (signal),"[2]; peptide conc. 5.08E-10 M, listed as des2.1.0_t1",46468325
same,HDAC8 activity raw data (signal),"[2]; peptide conc. 5.08E-10 M, listed as des2.1.0_t2",43451568
